We go through 14 compounds from PubChem BioAssay (NCI).

Some test systems named below: SF-295 CNS; NCI-H522 lung; MOLT-4 leukemia; ACHN renal; RXF 393 renal; MDA-MB-435; SR leukemia; HT29 colon; SN12C renal; SK-OV-3 ovarian.
Holding throughout (assay): NCI tumour cell line growth inhibition, 48 h

In brackets after ≈: the same amount, converted by molar mass. Several values for one entry are separate records, joined by “and”; a condition that tells them apart may be missing. Equal values may be shown once.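 Test compounds were applied to cells in 96-well plates for 48 hours at 5 doses. Here, GI50 denotes the concentration required for 50% inhibition of growth. TGI denotes the concentration required for complete inhibition of growth.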

Regarding `O=C1CC(c2ccccc2)C2(C(=O)NC(=S)NC2=O)C(c2ccccc2)C1` (stereo not given), the TGI in the experiment with SF-295 CNS, in the experiment with NCI-H522 lung, with MOLT-4 leukemia, in the experiment with ACHN renal, in the experiment with RXF 393 renal and in the experiment with MDA-MB-435 was over 75 µM each time. Further, the TGI in the experiment with SR leukemia, with HT29 colon and in the experiment on SN12C renal was over 75 µM in each case.

With `COc1ccc(C2OC(=O)c3ccc4ccccc4c32)c(C)c1` (stereo not given), the TGI is 14.7 µM in the experiment with SF-295 CNS; 20.9 µM with NCI-H522 lung; over 39.8 µM in the experiment with MOLT-4 leukemia; over 100 µM with ACHN renal; over 65.9 µM in the experiment on RXF 393 renal; 60.1 µM in the experiment with SK-OV-3 ovarian. The TGI in the experiment with MDA-MB-435 is 6.02 µM; in the experiment on SR leukemia, over 89.7 µM; in the experiment with HT29 colon, 15.1 µM; in the experiment on SN12C renal, over 100 µM.

As for `C=C(C(=O)O)[C@@H]1C[C@@H]2O[C@H]1[C@@H](O)[C@@H](C)CCCC(C)=CCC[C@@]2(C)O`, the TGI in the experiment on SF-295 CNS, with NCI-H522 lung, with MOLT-4 leukemia, in the experiment with ACHN renal, with RXF 393 renal and in the experiment on SK-OV-3 ovarian was over 100 µM in each case. The TGI in the experiment on MDA-MB-435 was over 100 µM; in the experiment with SR leukemia, over 95 µM; in the experiment on HT29 colon, over 100 µM; in the experiment on SN12C renal, over 100 µM. In addition, the GI50 with NCI-H522 lung is 29.3 µM and 67.6 µM; in the experiment on MOLT-4 leukemia, 27.2 µM and 56.9 µM; in the experiment on HT29 colon, 32.4 µM and > 100 µM.

For `O=C(O)Cc1ccc(Nc2nc3cc(C(F)(F)F)ccc3nc2C(=O)O)cc1`, the TGI in the experiment with SF-295 CNS, with NCI-H522 lung, with MOLT-4 leukemia, in the experiment on ACHN renal, in the experiment with RXF 393 renal and in the experiment with SK-OV-3 ovarian was over 100 µM in each case. Besides, the TGI in the experiment on MDA-MB-435, with SR leukemia, with HT29 colon and in the experiment with SN12C renal was over 100 µM throughout.

As for `c1cc2c(s1)-c1sccc1C21OCCO1`, the TGI with SF-295 CNS, with NCI-H522 lung, in the experiment on MOLT-4 leukemia, in the experiment with ACHN renal, in the experiment with MDA-MB-435 and with SR leukemia was over 100 µM throughout. Further, the TGI in the experiment with HT29 colon and with SN12C renal was over 100 µM each time.

With `Cc1c2c3ccccc3nc-2n(C)c2ccccc12`, the TGI in the experiment on SF-295 CNS worked out at 24.6 µM; in the experiment with MOLT-4 leukemia, 2.01 µM; in the experiment with ACHN renal it was 6.23 µM; with RXF 393 renal it was 6.01 µM; in the experiment with SK-OV-3 ovarian it was 7.22 µM; with MDA-MB-435, 12.4 µM. In addition, the TGI with SR leukemia stood at 25.2 µM; in the experiment with HT29 colon it was 11.6 µM; in the experiment on SN12C renal, 6.97 µM.

Take `NC(N)=NC(N)=Nc1ccc(S(=O)(=O)O)cc1`: the TGI in the experiment with SF-295 CNS, with NCI-H522 lung, in the experiment on ACHN renal, in the experiment on RXF 393 renal, in the experiment with SK-OV-3 ovarian and with MDA-MB-435 was over 100 µM each time. Also, the TGI in the experiment with SR leukemia, in the experiment on HT29 colon and in the experiment on SN12C renal was over 100 µM throughout.

In the case of `O=C(OC1C2OC(=O)c3cc(O)c(O)c(O)c3Oc3cc4c(c(O)c3O)-c3c(cc(O)c(O)c3O)C(=O)OCC3OC(O)C(OC(=O)c5cc(O)c(O)c(O)c5Oc5cc6c(c(O)c5O)-c5c(cc(O)c(O)c5O)C(=O)OC1C(COC6=O)OC2O)C(OC(=O)c1cc(O)c(O)c(O)c1)C3OC4=O)c1cc(O)c(O)c(O)c1` (stereo not given), the TGI was 57.5 µM in the experiment on SF-295 CNS; 12.2 µM with MOLT-4 leukemia; over 100 µM with ACHN renal; 52.5 µM with RXF 393 renal; 44.4 µM with SK-OV-3 ovarian; 42.6 µM in the experiment on MDA-MB-435. Besides, the TGI with SR leukemia was 27.3 µM; with HT29 colon it was 51.6 µM; in the experiment on SN12C renal, over 100 µM.

On to `O=CNNC(=O)Nc1cccc2ccccc12`, for which the TGI with SF-295 CNS, with MOLT-4 leukemia, with ACHN renal, with RXF 393 renal, with SK-OV-3 ovarian and in the experiment with MDA-MB-435 was over 100 µM throughout. Besides, the TGI with SR leukemia, with HT29 colon and with SN12C renal was over 100 µM in each case.

Turning to `CCN1CCC(O)(c2ccc(Oc3ccc(F)cc3)cc2)C(C(=O)c2ccc(Oc3ccc(F)cc3)cc2)C1` (stereo not given), the TGI in the experiment with SF-295 CNS is 29.3 µM; in the experiment with MOLT-4 leukemia, 41.3 µM; in the experiment with ACHN renal, 26.8 µM; with RXF 393 renal, 25.8 µM; with SK-OV-3 ovarian, 32.2 µM; in the experiment with MDA-MB-435 it was 30.8 µM. For the same compound, the TGI with SR leukemia worked out at 6.5 µM; in the experiment with HT29 colon, 23.6 µM; in the experiment with SN12C renal, 27.5 µM.

Consider `C/C(=N\N=C(\N)SB(F)F)c1ccc2ccccc2c1`, for which the TGI in the experiment with SF-295 CNS is over 100 µM; in the experiment with NCI-H522 lung it was 72 µM; in the experiment with ACHN renal, over 100 µM; in the experiment on RXF 393 renal, over 100 µM; with SK-OV-3 ovarian, over 100 µM; in the experiment with MDA-MB-435 it was over 100 µM. Besides, the TGI in the experiment with SR leukemia, in the experiment on HT29 colon and with SN12C renal was over 100 µM throughout.

As to `CS(=O)(=O)OCCN(CCOS(C)(=O)=O)c1ccc(C=Nc2cccc(Cl)c2)cc1`, the TGI with SF-295 CNS was 28.9 µM; in the experiment on NCI-H522 lung, 2.84 µM; with MOLT-4 leukemia, 1.31 µM; with ACHN renal it was 0.651 µM; in the experiment on RXF 393 renal, over 100 µM; with MDA-MB-435, 30.3 µM. Moreover, the TGI in the experiment on SR leukemia worked out at 0.307 µM; in the experiment on HT29 colon it was 33.6 µM; with SN12C renal, 27.8 µM.

As for `CO/N=C(/C)c1cccc(Nc2nc3ccccc3c3[nH]c4ccccc4c23)c1`, the TGI with SF-295 CNS worked out at 14.6 µM; with NCI-H522 lung it was 9.61 µM; with MOLT-4 leukemia it was 27.2 µM; in the experiment with ACHN renal, 12.8 µM; in the experiment on SK-OV-3 ovarian it was 40.3 µM; in the experiment with MDA-MB-435 it was 20.6 µM. The values for the TGI in the experiment on SR leukemia, in the experiment on HT29 colon and in the experiment on SN12C renal were over 100 µM, 11.2 µM and 25 µM, respectively.

Consider `CC(=O)c1c(C)nc(SSc2nc(C)c(C(C)=O)c(-c3ccc(Cl)cc3)c2C#N)c(C#N)c1-c1ccc(Cl)cc1`, for which the GI50 was 50.2 µg/mL (≈ 83.1 µM) with SF-295 CNS; 134 µg/mL in the experiment on MOLT-4 leukemia; 76.9 µg/mL (≈ 127 µM) with ACHN renal; 22.5 µg/mL (≈ 37.2 µM) with RXF 393 renal; 29.3 µg/mL (≈ 48.6 µM) in the experiment with SK-OV-3 ovarian; over 150 µg/mL in the experiment on MDA-MB-435. Besides, the GI50 was over 150 µg/mL in the experiment on SR leukemia, over 150 µg/mL in the experiment with HT29 colon and 15 µg/mL (≈ 24.9 µM) with SN12C renal. Further, the TGI with SF-295 CNS was over 150 µg/mL; in the experiment with MOLT-4 leukemia, over 150 µg/mL; in the experiment on ACHN renal, over 150 µg/mL; with RXF 393 renal it was 78.4 µg/mL; in the experiment on SK-OV-3 ovarian it was over 150 µg/mL; with MDA-MB-435 it was over 150 µg/mL. Also, the TGI was over 150 µg/mL in the experiment on SR leukemia, over 150 µg/mL in the experiment on HT29 colon and 15 µg/mL in the experiment with SN12C renal.
